According to patent US20180228780A1, “3-(1H-PYRROLO[2,3-C]PYRIDIN-2-YL)-1H-INDAZOLES AND THERAPEUTIC USES THEREOF” (Samumed, LLC, priority 2015, published 2018):

What was measured:
Format in all cases: cell-based
[1] = system: primary human mesenchymal stem cells (hMSCs); assay: Induction of chondrogenesis in hMSCs (nodule imaging, Rhodamine B / Nile Red); details: 6 days; for Emax: relative to TGF-β3 (10 ng/mL) positive control, read-out: Max. Activity as % TGF-β3 activity; for EC50: concentration required to induce 50% levels of chondrogenesis vs TGF-β3, read-out: Conc (nM) of 50% TGF-β3 activity
From the text: Representative compounds were screened using primary human mesenchymal stem cells (hMSCs) to determine their ability to induce chondrogenesis (process by which cartilage is developed).
Primary human mesenchymal stem cells (hMSCs) were purchased from Lonza (Walkersville, Md.) and expanded in Mesenchymal Stem Cell Growth Media (Lonza). Cells between passage 3 and 6 were used for the experiments.
Area of nodules in each well was normalized to the average of 3 DMSO treated wells on the same plate using Excel (Microsoft Inc.). The normalized averages (fold change over DMSO) of 2 or 3 replicate wells for each compound concentration were calculated. Due to solubility limitations of some of the compounds, curve fitting was incomplete leading to inaccurate EC50 determinations.
Using TGF-β3 as a positive control, the concentration of representative compounds required to induce 50% levels of chondrogenesis is reported. In addition, the maximum activity of each compound and the respective dose that each compound reached maximum chondrogenesis activity is reported.

SW480 colon cancer cells = assay: Cell viability assay (CellTiter-Blue) in SW480 colon cancer cells; details: Homo sapiens; for EC50: 96 h, SW480 cell viability, four days incubation; for inhibition at 10 µM: SW480, read-out: percent inhibition at 10 μM
Summary of the method: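 Fluorescence from resazurin reduced to resorufin by metabolically active cells was the read-out, taken after ~3 h with CellTiter-Blue.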

IL-6 (THP-1 cells) = assay: IL-6 inhibition in THP-1 monocytes (HTRF); details: Homo sapiens; for EC50: IL-6 inhibition, THP-1 cells, HTRF, 10-point dose-response starting from 10 μM; for inhibition at 10 µM: THP-1, read-out: percentage in parentheses printed under EC50 >10
Summary of the method: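 THP-1 cells serum-reduced (1% FBS, 24 h), plated 5000/well, stimulated with 500 ng/mL […] after 2 h and incubated a further 22 h at 37 °C. Secreted IL-6 quantified by HTRF (665/620 nm ratio), normalized to DMSO; EC50 from four-parameter fit, duplicates.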

[2] = system: Primary human fibroblasts derived from IPF patients (LL29 cells); assay: Inhibition of the fibrotic process: αSMA staining in TGF-β1-treated LL29 fibroblasts; details: Fibroblast; for EC50: 96 h, LL29 cells, TGF-β1 20 ng/mL, 4 days, % αSMA-positive cells
Summary of the method: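 LL29 IPF-patient lung fibroblasts plated in F12 with 1% FBS, treated with TGF-β1 plus compound; TGF-β1/DMSO wells served as controls. After 4 days incubation, SYTOX green (1 μM final) added for 30 min at room temperature; αSMA staining used as fibrosis read-out.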

[3] = system: Wnt activity (Sp5-Luc reporter, SW480 colon carcinoma cells); assay: Screening assay for Wnt activity: Sp5-Luc reporter gene assay in SW480 cells; details: Homo sapiens; for EC50: SW480 Sp5-Luc reporter, overnight incubation; for inhibition at 10 µM: SW480, read-out: percent inhibition at 10 μM
Summary of the method: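 SW480 colon carcinoma cells stably carrying Sp5 promoter (eight TCF/LEF sites)-driven firefly luciferase, plated at 4,000 cells/well in 1% FBS medium and incubated overnight at 37° C. Luminescence normalised to DMSO-only cells; EC50 from four-parameter variable-slope nonlinear regression.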

| SMILES | EC50 (SW480 colon cancer cells) [nM] | EC50 (IL-6 (THP-1 cells)) [nM] | EC50 [3] [nM] | EC50 [1] [nM] | Emax [1] [%] | EC50 [2] [nM] | inhibition at 10 µM (SW480 colon cancer cells) [%] | inhibition at 10 µM (IL-6 (THP-1 cells)) [%] | inhibition at 10 µM [3] [%] | inhibition at 10 µM ([2]; read-out: percent inhibition at 10 μM) [%] |
| --- | --- | --- | --- | --- | --- | --- | --- | --- | --- | --- |
| CC(C)CC(=O)Nc1cncc(-c2ccc3[nH]nc(-c4cc5c(N6CCCCC6)cncc5[nH]4)c3c2)c1 [Compound 170] | 279 | 46 | 377 | 2700 | 113 | 550 |  |  |  |  |
| c1cc(-c2cncc3[nH]c(-c4n[nH]c5ccc(-c6cncc(CN7CCCC7)c6)cc45)cc23)ccn1 [Compound 126, 3-(4-(Pyridin-4-yl)-1H-pyrrolo[2,3-c]pyridin-2-yl)-5-(5-(pyrrolidin-1-ylmethyl)pyridin-3-yl)-1H-indazole] | 2310 | 2160 | 3390 |  | 48 | 1490 |  |  |  |  |
| c1cncc(-c2cncc3[nH]c(-c4n[nH]c5ccc(-c6cncc(CN7CCCCC7)c6)cc45)cc23)c1 [Compound 99, 5-(5-(Piperidin-1-ylmethyl)pyridin-3-yl)-3-(4-(pyridin-3-yl)-1H-pyrrolo[2,3-c]pyridin-2-yl)-1H-indazole] | 3370 | 5700 | > 10000 |  | 40 | 4040 |  |  | 31.2 |  |
| O=C(Nc1cncc(-c2ccc3[nH]nc(-c4cc5c(-c6cccnc6)cncc5[nH]4)c3c2)c1)c1ccccc1 [Compound 95] | > 10000 | 1710 | > 10000 | 10 | 69 | > 10000 | 22.7 |  | 32.4 | 34.2 |
| CC(C)C(=O)Nc1cncc(-c2ccc3[nH]nc(-c4cc5c(-c6cccnc6)cncc5[nH]4)c3c2)c1 [Compound 93, N-(5-(3-(4-(Pyridin-3-yl)-1H-pyrrolo[2,3-c]pyridin-2-yl)-1H-indazol-5-yl)pyridin-3-yl)isobutyramide] | 584 | 247 | 260 |  | 34 | 175 |  |  |  |  |
| c1ncc(-c2ccc3[nH]nc(-c4cc5c(N6CCCCC6)cncc5[nH]4)c3c2)cc1CN1CCCC1 [Compound 182, 3-(4-(Piperidin-1-yl)-1H-pyrrolo[2,3-c]pyridin-2-yl)-5-(5-(pyrrolidin-1-ylmethyl)pyridin-3-yl)-1H-indazole] | 4340 | 503 | 1840 |  | 25 | 2420 |  |  |  |  |
| CCNCc1cncc(-c2ccc3[nH]nc(-c4cc5c(-c6ccccc6F)cncc5[nH]4)c3c2)c1 [Compound 62, N-((5-(3-(4-(2-Fluorophenyl)-1H-pyrrolo[2,3-c]pyridin-2-yl)-1H-indazol-5-yl)pyridin-3-yl)methyl)ethanamine] | 4720 | 7510 | > 10000 | 100 | 86 | 9730 |  |  | 51 |  |
| CCC(=O)Nc1cncc(-c2ccc3[nH]nc(-c4cc5c(-c6cccc(F)c6)cncc5[nH]4)c3c2)c1 [Compound 1] | 94 | 45 | 45 |  | 34 | 62 |  |  |  |  |
| CN(C)Cc1cncc(-c2ccc3[nH]nc(-c4cc5c(-c6cccc(F)c6)cncc5[nH]4)c3c2)c1 [Compound 13, 1-(5-(3-(4-(3-Fluorophenyl)-1H-pyrrolo[2,3-c]pyridin-2-yl)-1H-indazol-5-yl)pyridin-3-yl)-N,N-dimethylmethanamine] | 420 | 75 | 1280 | 10 | 193 | 952 |  |  |  |  |
| CC(C)Nc1cncc(-c2ccc3[nH]nc(-c4cc5c(-c6cccnc6)cncc5[nH]4)c3c2)c1 [Compound 96, N-Isopropyl-5-(3-(4-(pyridin-3-yl)-1H-pyrrolo[2,3-c]pyridin-2-yl)-1H-indazol-5-yl)pyridin-3-amine] | 836 | 128 | 670 |  | 42 | 315 |  |  |  |  |

More lines, main results first:

| EC50 (SW480 colon cancer cells) [nM] | EC50 (IL-6 (THP-1 cells)) [nM] | EC50 [3] [nM] | EC50 [1] [nM] | SMILES | Emax [1] [%] | EC50 [2] [nM] | inhibition at 10 µM (SW480 colon cancer cells) [%] | inhibition at 10 µM (IL-6 (THP-1 cells)) [%] | inhibition at 10 µM [3] [%] | inhibition at 10 µM ([2]; read-out: percent inhibition at 10 μM) [%] |
| --- | --- | --- | --- | --- | --- | --- | --- | --- | --- | --- |
| 510 | 2580 | 956 |  | COc1cncc(-c2ccc3[nH]nc(-c4cc5c(-c6ccsc6)cncc5[nH]4)c3c2)c1 [Compound 676, 5-(5-Methoxypyridin-3-yl)-3-(4-(thiophen-3-yl)-1H-pyrrolo[2,3-c]pyridin-2-yl)-1H-indazole] | 40 | 434 |  |  |  |  |
| 1040 | 3710 | 3710 |  | CN(C)Cc1cncc(-c2cc(F)c3[nH]nc(-c4cc5c(-c6cccc(F)c6)cncc5[nH]4)c3c2)c1 [Compound 991, 1-(5-(7-Fluoro-3-(4-(3-fluorophenyl)-1H-pyrrolo[2,3-c]pyridin-2-yl)-1H-indazol-5-yl)pyridin-3-yl)-N,N-dimethylmethanamine] | 38 | 1230 |  |  |  |  |
| > 10000 | > 10000 | > 10000 | 100 | CN1CCN(c2cncc3[nH]c(-c4n[nH]c5ccc(-c6cncc(NC(=O)CC7CCNCC7)c6)cc45)cc23)CC1 [Compound 641, N-(5-(3-(4-(4-Methylpiperazin-1-yl)-1H-pyrrolo[2,3-c]pyridin-2-yl)-1H-indazol-5-yl)pyridin-3-yl)-2-(piperidin-4-yl)acetamide] | 289 | 6440 | 11.9 | 43.7 | 6.7 |  |
| 4020 | 1370 | 4060 |  | CN1CCN(c2cncc3[nH]c(-c4n[nH]c5ccc(-c6cccnc6)cc45)cc23)CC1 [Compound 228, 3-(4-(4-Methylpiperazin-1-yl)-1H-pyrrolo[2,3-c]pyridin-2-yl)-5-(pyridin-3-yl)-1H-indazole] | 20 | 774 |  |  |  |  |
| 3630 | 3590 | 3340 | 30 | CN1CCN(c2cncc3[nH]c(-c4n[nH]c5ccc(-c6cncc(CNCc7ccccc7)c6)cc45)cc23)CC1 [Compound 248] | 101 | 1160 |  |  |  |  |
| > 10000 | > 10000 | 2900 |  | Cc1ncc(-c2ccc3[nH]nc(-c4cc5c(-c6ccncc6)cncc5[nH]4)c3c2)n1C [Compound 573, 5-(1,2-Dimethyl-1H-imidazol-5-yl)-3-(4-(pyridin-4-yl)-1H-pyrrolo[2,3-c]pyridin-2-yl)-1H-indazole] | 28 | 2160 | 30.3 | 11 |  |  |
| 117 | 14 | 86 | 10 | O=C(Nc1cncc(-c2ccc3[nH]nc(-c4cc5c(-c6cccs6)cncc5[nH]4)c3c2)c1)C1CC1 [Compound 356, N-(5-(3-(4-(Thiophen-2-yl)-1H-pyrrolo[2,3-c]pyridin-2-yl)-1H-indazol-5-yl)pyridin-3-yl)cyclopropanecarboxamide] | 156 | 83 |  |  |  |  |
| 2900 | 5610 | 1760 |  | c1ncc(-c2ccc3[nH]nc(-c4cc5c(N6CCCCC6)cncc5[nH]4)c3c2)cn1 [Compound 195, 3-(4-(Piperidin-1-yl)-1H-pyrrolo[2,3-c]pyridin-2-yl)-5-(pyrimidin-5-yl)-1H-indazole] | 38 | 1080 |  |  |  |  |
| 3150 | 134 | 1840 |  | c1cc2cc(-c3n[nH]c4ccc(-c5cncc(OCCN6CCCC6)c5)cc34)[nH]c2cn1 [Compound 658, 5-(5-(2-(Pyrrolidin-1-yl)ethoxy)pyridin-3-yl)-3-(1H-pyrrolo[2,3-c]pyridin-2-yl)-1H-indazole] | 45 | 925 |  |  |  |  |
| 835 | 57 | 578 | 10 | c1ccc(CNCc2cncc(-c3ccc4[nH]nc(-c5cc6c(-c7cccs7)cncc6[nH]5)c4c3)c2)cc1 [Compound 360] | 57 | 187 |  |  |  |  |
